What is called IC50 is the concentration that inhibits the measured activity by half. High values mean lower potency, low ones higher potency. In general, inhibition refers to the relative decrease from the control value, in per cent.

Holding throughout (assay): fluorescence, kynuramine to 4-hydroxyquinoline
Format in all cases: biochemical

For test [1], the target named is T1, MAO-A (Homo sapiens, UniProt P21397).
T1 construct: gene MAOA; human recombinant enzyme
T1 sequence (P21397 1-527): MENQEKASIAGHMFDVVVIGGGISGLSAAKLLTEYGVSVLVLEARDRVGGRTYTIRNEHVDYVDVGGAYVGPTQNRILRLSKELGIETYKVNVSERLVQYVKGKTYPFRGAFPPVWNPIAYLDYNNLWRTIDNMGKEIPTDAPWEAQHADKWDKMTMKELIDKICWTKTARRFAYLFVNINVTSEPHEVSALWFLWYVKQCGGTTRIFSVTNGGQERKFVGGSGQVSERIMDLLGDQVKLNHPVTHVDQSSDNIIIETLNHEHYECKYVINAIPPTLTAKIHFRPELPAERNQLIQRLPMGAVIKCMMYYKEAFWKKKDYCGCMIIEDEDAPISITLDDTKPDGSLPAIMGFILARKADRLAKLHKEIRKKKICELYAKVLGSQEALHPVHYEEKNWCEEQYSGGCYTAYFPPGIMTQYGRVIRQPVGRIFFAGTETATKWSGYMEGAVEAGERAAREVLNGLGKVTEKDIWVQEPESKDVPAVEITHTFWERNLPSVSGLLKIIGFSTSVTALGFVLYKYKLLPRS

The target of test [2] is T2, MAO-B (Homo sapiens, UniProt P27338).
T2 construct: gene MAOB; human recombinant enzyme
T2 sequence (P27338 2-520): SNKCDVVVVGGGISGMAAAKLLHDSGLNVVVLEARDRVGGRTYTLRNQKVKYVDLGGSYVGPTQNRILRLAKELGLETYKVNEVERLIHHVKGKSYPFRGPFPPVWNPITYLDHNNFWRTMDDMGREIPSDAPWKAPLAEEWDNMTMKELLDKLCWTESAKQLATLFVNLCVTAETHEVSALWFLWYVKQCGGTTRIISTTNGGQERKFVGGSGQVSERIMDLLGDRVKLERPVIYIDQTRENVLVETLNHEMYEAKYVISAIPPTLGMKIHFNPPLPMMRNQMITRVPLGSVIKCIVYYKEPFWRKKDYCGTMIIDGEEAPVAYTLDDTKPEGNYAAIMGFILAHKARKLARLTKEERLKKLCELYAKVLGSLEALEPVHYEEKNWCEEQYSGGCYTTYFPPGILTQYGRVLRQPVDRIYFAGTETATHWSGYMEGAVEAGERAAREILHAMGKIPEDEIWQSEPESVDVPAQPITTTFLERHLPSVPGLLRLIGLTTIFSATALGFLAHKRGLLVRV

Test [3] has as its target T2, MAO-B. The conditions noted are these: read-out: % inhibition at 1000 μM. An excerpt: fluorescence, kynuramine to 4-hydroxyquinoline on MAO-B

In the case of `O=c1c(O[C@@H]2O[C@H](CO)[C@H](O)[C@H](O)[C@H]2O)c(-c2ccc(O)cc2)oc2cc(O)cc(O)c12` [compound 2, trifolin], the figures for the half-maximal inhibitory concentration (IC50) in test [1] and in test [2] were 578.4 ± 2.01 µM and 860.7 ± 3.7 µM, respectively.
The matching figures for `C[C@@H]1O[C@@H](O[C@H]2[C@H](Oc3c(-c4ccc(O)cc4)oc4cc(O)cc(O)c4c3=O)O[C@H](CO)[C@@H](O)[C@@H]2O)[C@H](O)[C@H](O)[C@H]1O` [compound 3, kaempferol-3-neohesperidoside]: 108.9 ± 0.21 µM and 242.2 ± 0.78 µM.
For `OCCc1ccc(O[C@@H]2O[C@H](CO)[C@@H](O)[C@H](O)[C@H]2O)cc1` [compound 4, icariside D2], in test [1], 584 ± 11.8 µM corresponded to half-maximal inhibition (IC50). For the same compound, in test [3], the inhibition at 1000 µM was found to be 43.5 ± 5.2%.
The matching figures for `CC[C@H](CC[C@@H](C)[C@H]1CC[C@H]2[C@@H]3CC=C4C[C@@H](O)CC[C@]4(C)[C@H]3CC[C@]12C)C(C)C` [compound 5, β-sitosterol]: 2.8 ± 0.13 µM and 20.7 ± 1.8%.

Values taken from PMC11723358, “Nelumbo nucifera Petals Ameliorate Depressive-like Symptom and Cognitive Deficit in Unpredictable Chronic Mild Stress Mouse Model” (Nutrients, 2024).
